Measured values reported in patent US20030119022A1, “Recognition and cleavage at the DNA major groove” (priority 2001, published 2003).

Assays:
[1] = system: 5′-^32p end-labeled 514 bps restriction fragment from pBR322 DNA (Ecor I/ Rsa I); assay: Reductive cleavage of 32P-end labeled DNA restriction fragment, PAGE autoradiogram; assay type: biochemical
[2] = NaBH4 reductive activation, hydrolytic cleavage
[3] = NaBH4 reductive activation, piperidine cleavage

CCOC(=O)c1[nH]c2c(c1COC(C)=O)C(=O)C(OC)=CC2=O
melting point: 194 to 196 °C

COC1=CC(=O)c2[nH]c(COC(C)=O)c(COC(C)=O)c2C1=O [Compound 1d, 2,3-Diacetoxymethyl-5-methoxyindol-4,7-dione]
melting point: 179 to 181 °C | Cleavage Pattern [1, 2]: recognition occurs only at 3′-GGA-5′ with phosphate alkylation and cleavage occurring largely at the center G base | Cleavage Pattern [1, 3]: GT (5′

COC1=CC(=O)c2[nH]c3c(c2C1=O)CCC3OC(C)=O (stereo not drawn) [Compound 2b, 3-Acetoxy-7-methoxy-1,2,3,4-tetrahydrocyclopent[b]indole-5,8-dione]
melting point: 173 to 175 °C | Cleavage Pattern [1, 2]: No Significant | Cleavage Pattern [1, 3]: G & T of 3′-GT-

COS(=O)(=O)OC [DMS, reference compound]
Cleavage Pattern ([1]; Piperidine cleavage, no reductive activation (sequencing reference lane)): G & A

CC(=O)OCc1[nH]c2c(c1C)C(=O)C(N1CC1)=CC2=O [reference compound]
Cleavage Pattern [1, 2]: Weak Cleavage | Cleavage Pattern [1, 3]: Some G & A

CC(=O)OC1CCc2c1[nH]c1c2C(=O)C=C(N2CC2)C1=O (stereo not drawn) [reference compound]
Cleavage Pattern [1, 2]: No Significant Cleavage | Cleavage Pattern [1, 3]: G & T of 3′-GT- 5′
